Source: patent US9884806B2, “Cyclic vinylogous amides as bromodomain inhibitors” (ICAHN SCHOOL OF MEDICINE AT MOUNT SINAI, priority 2013, dated 2018)
pIC50: −log10 of the molar value.

Legend:
[1] = target: T1, BRD4_2 (Homo sapiens, UniProt O60885); assay: Fluorescence anisotropy binding assay (competition with FITC-labeled MS417 probe), BRD4_2; conditions: FITC-MS417 probe 80 nM, PBS pH 7.4, 1 hour, 25° C.
T1 construct: contains two tandem bromodomains (BrD1 and BrD2)

[2] = target: T2, first bromodomain (BrD1) of human BRD4 (Homo sapiens, UniProt O60885); assay: Fluorescence anisotropy binding assay (competition with FITC-labeled MS417 probe); conditions: FITC-MS417 probe 80 nM, PBS pH 7.4, 1 hour, 25° C., read-out: BRD4_1 IC50
T2 construct: the first bromodomain (BrD1) of human BRD4; poly-His (cleaved yes); made in house
Summary of the method: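 Competitive fluorescence anisotropy in PBS pH 7.4: 80 nM FITC-MS417 probe, 0.25 to 1 μM tag-cleaved BrD1, titrated unlabeled ligand, 1 hour at 25° C. IC50 values were fitted and converted to Ki using a corrected Cheng-Prusoff equation assuming one-site competition.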

Compound	pIC50 [1]	melting point	pIC50 [2]
CC1=C(Nc2ccc3cc(C(=O)O)ccc3c2Cl)CCCC1=O [Example 01-53, 5-chloro-6-[(2-methyl-3-oxocyclohex-1-en-1-yl)amino]naphthalene-2-carboxylic acid]	5.00 to 6.00	272 to 275 °C (dec.)	> 6.00
CC1=C(Nc2ccc3ncncc3c2)CCCC1=O [Example 01-61, 2-methyl-3-[(quinazolin-6-yl)amino]cyclohex-2-en-1-one]	< 5.00	215 to 216 °C	< 5.00
CC1=C(Nc2ccccc2C(N)=O)CCC1=O [Example 01-18, 2-((2-methyl-3-oxocyclopent-1-en-1-yl)amino)benzamide]	< 5.00	235 to 238 °C	< 5.00
CC1=C(Nc2cccnc2)CCC1=O [Example 01-29, 2-methyl-3-(pyridin-3-ylamino)cyclopent-2-enone]	< 5.00	133 to 135 °C	< 5.00
CC1=C(Nc2cccc(Cl)c2C(=O)O)CCC1=O [Example 01-23, 2-chloro-6((2-methyl-3-oxocyclopent-1-en-1-yl)amino)benzoic acid]	< 5.00	277 to 280 °C	< 5.00
CC1=C(Nc2ccc3cnccc3c2)CCCC1=O [Example 01-55, 3-[(isoquinolin-6-yl)amino]-2-methylcyclohex-2-en-1-one]	5.00 to 6.00	163 to 165 °C	5.00 to 6.00
CC1=C(Nc2cc(C(=O)O)ccc2Cl)CCC1=O [Example 01-25, 4-chloro-3((2-methyl-3-oxocyclopent-1-en-1-yl)amino)benzoic acid]	< 5.00	272 to 275 °C	5.00 to 6.00
CC1=C(Nc2cccc(N)c2Cl)CCC1=O [Example 02-13, 3-((3-amino-2-chlorophenyl)amino)-2-methylcyclopent-2-enone]	5.00 to 6.00	223 to 225 °C	5.00 to 6.00
CC1=C(Nc2cc(N)ccc2Cl)CCC1=O [Example 02-15, 3-((5-amino-2-chlorophenyl)amino)-2-methylcyclopent-2-en-1-one]	5.00 to 6.00	166 to 168 °C	5.00 to 6.00
CC1=C(Nc2cc3ccccc3cn2)CCCC1=O [Example 01-58, 3-[(isoquinolin-3-yl)amino]-2-methylcyclohex-2-en-1-one]	5.00 to 6.00	205 to 208 °C	5.00 to 6.00
CC1=C(Nc2ccncc2Cl)CCCC1=O [Example 01-51, 3-[(3-chloropyridin-4-yl)amino]-2-methylcyclohex-2-en-1-one]	< 5.00	135 to 138 °C	5.00 to 6.00
COC(=O)c1ccc(NC2=C(C)C(=O)CC2)c(I)c1 [Example 01-43, methyl 3-iodo-4-((2-methyl-3-oxocyclopent-1-en-1-yl)amino)benzoate]	5.00 to 6.00	178 to 180 °C	5.00 to 6.00
CC1=C(Nc2ccc3nccnc3c2)CCCC1=O [Example 01-60, 2-methyl-3-[(quinoxalin-6-yl)amino]cyclohex-2-en-1-one]	5.00 to 6.00	110 to 112 °C	5.00 to 6.00
CC1=C(Nc2cccc(CC(=O)O)c2)CCCC1=O [Example 01-37, 2-(3((2-methyl-3-oxocyclohex-1-en-1-yl)amino)phenyl)acetic acid]	< 5.00	203 to 207 °C	< 5.00
CC1=C(Nc2cccc3ccccc23)CCC1=O [Example 01-26, 2-methyl-3-(naphthalen-1-ylamino)cyclopent-2-enone]	5.00 to 6.00	166 to 168 °C	5.00 to 6.00
CC1=C(Nc2cc(N)ccc2Cl)CCCC1=O [Example 02-10, 3-((5-amino-2-chlorophenyl)amino)-2-methylcyclohex-2-enone]	5.00 to 6.00	182 to 184 °C	5.00 to 6.00
COC(=O)c1ccc(NC2=C(C)C(=O)CC2)c(Br)c1 [Example 01-22, methyl 3-bromo-4((2-methyl-3-oxocyclopent-1-en-1-yl)amino)benzoate]	5.00 to 6.00	155 to 158 °C	5.00 to 6.00
CC1=C(Nc2ccc3cccnc3c2)CCCC1=O [Example 01-57, 2-methyl-3-[(quinolin-7-yl)amino]cyclohex-2-en-1-one]	5.00 to 6.00	133 to 135 °C	5.00 to 6.00
CC1=C(Nc2ccc3cc[nH]c3c2)CCCC1=O [Example 01-62, 3-[(1H-indol-6-yl)amino]-2-methylcyclohex-2-en-1-one]	5.00 to 6.00	227 to 230 °C	> 6.00
COC(=O)c1cc(Cl)ccc1NC1=C(C)C(=O)CC1 [Example 01-20, methyl 5-chloro-2-((2-methyl-3-oxocyclopent-1-en-1-yl)amino)benzoate]	< 5.00	162 to 165 °C	< 5.00
CC1=C(Nc2ccc3ncccc3c2)CCCC1=O [Example 01-54, 2-methyl-3-[(quinolin-6-yl)amino]cyclohex-2-en-1-one]	5.00 to 6.00	208 to 210 °C	5.00 to 6.00
COC(=O)c1ccc(Cl)cc1NC1=C(C)C(=O)CC1 [Example 01-24, methyl 4-chloro-2-((2-methyl-3-oxocyclopent-1-en-1-yl)amino)benzoate]	< 5.00	167 to 170 °C	5.00 to 6.00
CC1=C(Nc2ccc(C(N)=O)cc2)CCCC1=O [Example 01-35, 4((2-methyl-3-oxocyclohex-1-en-1-yl)amino)benzamide]	5.00 to 6.00	221 to 223 °C	5.00 to 6.00

Next, values leading:

pIC50 [1]	melting point	pIC50 [2]	Compound
> 6.00	103 to 105 °C	> 6.00	CC1=C(Nc2cc(NCc3ccccc3F)ccc2Cl)CCCC1=O [Example 05-74, 3-((2-chloro-5-((2-fluorobenzyl)amino)phenyl)amino)-2-methylcyclohex-2-enone]
5.00 to 6.00	75 to 77 °C	> 6.00	CC1=C(Nc2cccc(NS(=O)(=O)c3ccccc3C)c2Cl)CCC1=O [Example 05-65, N-(2-chloro-3-((2-methyl-3-oxocyclopent-1-en-1-yl)amino)phenyl)-2-methylbenzenesulfonamide]
5.00 to 6.00	85 to 87 °C	5.00 to 6.00	CC1=C(Nc2cc(NCCc3ccccc3C)ccc2Cl)CCCC1=O [Example 05-73, 3-((2-chloro-5-((2-methylphenethyl)amino)phenyl)amino)-2-methylcyclohex-2-enone]
5.00 to 6.00	230 to 232 °C	> 6.00	CC1=C(Nc2ccc(NS(=O)(=O)C3CCCCC3)cc2Cl)CCCC1=O [Example 05-69, N-(3-chloro-4-((2-methyl-3-oxocyclohex-1-en-1-yl)amino)phenyl)-cyclohexanesulfonamide]
< 5.00	68 to 70 °C	> 6.00	CC1=C(Nc2ccc(Nc3ccccc3C)cc2Cl)CCCC1=O [Example 05-82, 3-((2-chloro-4-(o-tolylamino)phenyl)amino)-2-methylcyclohex-2-enone]
> 6.00	78 to 80 °C	> 6.00	CC1=C(Nc2cc(NS(=O)(=O)N3CCCCC3)ccc2Cl)CCC1=O [Example 05-61, N-(4-chloro-3-((2-methyl-3-oxocyclopent-1-en-1-yl)amino)phenyl)-piperidine-1-sulfonamide]
5.00 to 6.00	215 to 218 °C	> 6.00	CC1=C(Nc2ccc(NS(=O)(=O)c3ccccc3C)cc2Cl)CCC1=O [Example 05-63, N-(3-chloro-4-((2-methyl-3-oxocyclopent-1-en-1-yl)amino)phenyl)-2-methylbenzenesulfonamide]
5.00 to 6.00	248 to 250 °C	> 6.00	CC1=C(Nc2ccc(NC(=O)C3CCCCC3)cc2Cl)CCCC1=O [Example 05-49, N-(3-chloro-4-((2-methyl-3-oxocyclohex-1-en-1-yl)amino)phenyl)-cyclohexanecarboxamide]
< 5.00	220 to 221 °C	5.00 to 6.00	CC1=C(Nc2ccc(NCc3ccccc3C)cc2Cl)CCCC1=O [Example 05-76, 3-((2-chloro-4-((2-methylbenzyl)amino)phenyl)amino)-2-methylcyclohex-2-enone]
5.00 to 6.00	178 to 180 °C	> 6.00	CC1=C(Nc2cccc(NC(=O)c3cccc4ccccc34)c2Cl)CCCC1=O [Example 05-52, N-(2-chloro-3-((2-methyl-3-oxocyclohex-1-en-1-yl)amino)phenyl)-1-naphthamide]
> 6.00	235 to 238 °C	> 6.00	CC1=C(Nc2cc(NS(=O)(=O)c3ccccc3C#N)ccc2Cl)CCC1=O [Example 05-59, N-(4-chloro-3-((2-methyl-3-oxocyclopent-1-en-1-yl)amino)phenyl)-2-cyanobenzenesulfonamide]
> 6.00	243 to 245 °C	> 6.00	CC1=C(Nc2cc(NC(=O)c3cccc4ccccc34)ccc2Cl)CCC1=O [Example 05-40, N-(4-chloro-3-[(2-methyl-3-oxocyclopent-1-en-1-yl)amino]phenyl)-naphthalene-1-carboxamide]
5.00 to 6.00	222 to 224 °C	> 6.00	COc1ccc(NC(=O)c2ccc(NC3=C(C)C(=O)CC3)c(I)c2)cc1 [Example 04-104, 3-iodo-N-(4-methoxyphenyl)-4-((2-methyl-3-oxocyclopent-1-en-1-yl)amino)benzamide]
